According to patent publication US20070020196A1, “Inhalant formulation containing sulfoalkyl ether cyclodextrin and corticosteroid prepared from a unit dose suspension” (priority 2003, published 2007):

Tests used:
[1] = Molar ratio SAE-CD:corticosteroid at saturated solubility (phase solubility binding study); format: physicochemical
[2] = Light stability of budesonide under fluorescent lights; format: physicochemical
Excerpt: Samples of the above solutions were also placed in a chamber under a bank of fluorescent lights. Vials were periodically removed and assayed for budesonide. […] The loss of budesonide was first order and independent of pH.

[3] = Solubility of selected steroids enhanced by cyclodextrins (phase solubility); details: thermodynamic from solid
[4] = Density of CAPTISOL solutions (pycnometer); format: physicochemical; details: 25° C.
Procedure: The concentration of SAE-CD in solution can be expressed on a weight to weight or weight to volume basis; however, these two units are interconvertible. When a known weight of cyclodextrin is dissolved in a known weight of water, the % w/w cyclodextrin concentration is determined by dividing the cyclodextrin weight in grams by the total weight (cyclodextrin+water weight) in like units and multiplying by 100. When a known weight of cyclodextrin is dissolved to a known total volume, the % w/v cyclodextrin concentration is determined by dividing the cyclodextrin weight in grams by the total volume in milliliters and multiplying by 100. The correlation between the two cyclodextrin concentration percentages was experimentally determined by preparing various % w/w cyclodextrin solutions and measuring the density of each with a pycnometer at 25° C.

[5] = Viscosity of aqueous SAE-CD solutions (cone and plate viscometer); format: physicochemical; details: 25 C
Procedure: The performance of an inhalable solution of the invention in a nebulizer may depend upon the viscosity of the solution in its reservoir, the nebulization solution. Viscosity of the inhalable composition can have an impact on percentage of nebulization composition emitted from a nebulizer, output rate of nebulized corticosteroid and droplet size distribution.
The viscosity of aqueous solutions containing SAE-CD were measured using a cone and plate viscometer.
A Brookfield Programmable DV-III+ Rheometer, CPE-40 cone and CPE 40Y plate (Brookfield Engineering Laboratories, Middleboro, Mass.) was used to make measurements on 0.5 ml samples at 1, 2, 3, 5 and 10 rpm. Samples were sheered for approximately 5 revolutions prior to each measurement. This allowed accurate rheological characterization of the samples. The temperature of all samples was equilibrated to 25+/−1 degree centigrade using a double wall viscometer cone supplied with water from an electronically controlled thermostatic circulating water bath (Model, 8001, Fisher Scientific, Pittsburgh, Pa.). The viscometer was calibrated using 5 and 50 centipoise using silicon oil calibration standards. Viscosity measurements were made at 5 or more rotation speeds to look for sheer thinning behavior (viscosities that decrease as the rate of sheer increases). Higher rotation speeds result in increased rates of sheer.

[6] = Tonicity of SBE7-β-CD solutions with respect to blood; format: physicochemical; details: in water
Excerpt: An osmotic agent can be used in the compositions to enhance the overall comfort to the patient upon delivery of the corticosteroid composition. Osmotic agents can be added to adjust the tonicity of SAE-CD containing solutions. Osmolality is related to concentration of SAE-CD in water. At SBE7-β-CD concentrations below about 11-13% w/v, the solutions are hypotonic or hypoosmotic with respect to blood and at SBE7-β-CD concentrations above about 11-13% w/v the SBE7-β-CD containing solutions are hypertonic or hyperosmotic with respect to blood. When red blood cells are exposed to solutions that are hypo- or hypertonic, they can shrink or swell in size, which can lead to hemolysis. As noted above and in FIG. 1, SBE-CD is less prone to induce hemolysis than other derivatized cyclodextrins. Suitable osmotic agents include any low molecular weight water-soluble species pharmaceutically approved for pulmonary and nasal delivery such as sodium chloride, lactose and glucose. The formulation of the invention can also include biological salt(s), potassium chloride, or other electrolyte(s).

red blood cells = details: concentrations typically used to solubilize pharmaceutical formulations; cited from earlier work
[7] = male, human, in vivo; cited from earlier work

In the case of `CCCC1O[C@@H]2C[C@H]3[C@@H]4CCC5=CC(=O)C=C[C@]5(C)[C@H]4[C@@H](O)C[C@]3(C)[C@]2(C(=O)CO)O1` (stereo partly drawn) [Budesonide, (R,S)-11β,16α,17,21-tetrahydroxypregna-1,4-diene-3,20-dione cyclic 16,17-acetal with butyraldehyde], the “Approximate Molar Ratio at Saturated Solubility of Corticosteroid (SAE-CD: corticosteroid)” value (from here on “Approximate Molar Ratio”) ([1]; SAE-α-CD) is reported as ~12, the “Approximate Molar Ratio” value ([1]; SAE-β-CD) is reported as ~16 and the “Approximate Molar Ratio” value ([1]; SAE-γ-CD (SBE5.2)) is reported as ~10.8 (SBE5.2),. The “Approximate Molar Ratio” value ([1]; SAE-γ-CD (SBE6.1)) was ~13 (SBE6.1),, the “Approximate Molar Ratio” value ([1]; SAE-γ-CD (SPE5.4)) was ~10.1 (SPE5.4) and the “Light Stability, Pseudo 1st Order Rate constant” value (from here on “Light Stability”) ([2]; Captisol, pH 4) was 0.0585 h⁻¹. For the same compound, the “Light Stability” value ([2]; Captisol, pH 6) was 0.0562 h⁻¹, the “Light Stability” value ([2]; No Captisol, pH 4) was 0.0812 h⁻¹ and the “Light Stability” value ([2]; No Captisol, pH 6) was 0.0822 h⁻¹. The solubility ([3]; aqueous cyclodextrin solution, aqueous with cosolvent or surfactant or cyclodextrin, Solubility of steroid, (SBE)5.2 γ-CD 0.04 M) was 3.76 mM, the solubility ([3]; aqueous cyclodextrin solution, aqueous with cosolvent or surfactant or cyclodextrin, Solubility of steroid, (SBE)5.2 γ-CD 0.1 M) was 8.62 mM and the solubility ([3]; aqueous cyclodextrin solution, aqueous with cosolvent or surfactant or cyclodextrin, Solubility of steroid, (SBE)6.1 γ-CD 0.04 M) was 3.07 mM. For the same compound, the solubility ([3]; aqueous cyclodextrin solution, aqueous with cosolvent or surfactant or cyclodextrin, Solubility of steroid, (SBE)6.1 γ-CD 0.08 M) was 6.99 mM, the solubility ([3]; aqueous cyclodextrin solution, aqueous with cosolvent or surfactant or cyclodextrin, Solubility of steroid, (SBE)6.7 β-CD 0.0465 M) was 2.55 mM and the solubility ([3]; aqueous cyclodextrin solution, aqueous with cosolvent or surfactant or cyclodextrin, Solubility of steroid, (SBE)6.7 β-CD 0.0950 M) was 4.28 mM. It also gave a solubility ([3]; aqueous cyclodextrin solution, aqueous with cosolvent or surfactant or cyclodextrin, Solubility of steroid, (SBE)7 α-CD 0.04 M) of 3.48 mM, a solubility ([3]; aqueous cyclodextrin solution, aqueous with cosolvent or surfactant or cyclodextrin, Solubility of steroid, (SBE)7 α-CD 0.08 M) of 5.98 mM and a solubility ([3]; aqueous cyclodextrin solution, aqueous with cosolvent or surfactant or cyclodextrin, Solubility of steroid, (SBE)9.7 γ-CD […]) of 4.53 mM. It also gave a solubility ([3]; aqueous cyclodextrin solution, aqueous with cosolvent or surfactant or cyclodextrin, Solubility of steroid, (SPE)5.4 γ-CD 0.04 M) of 4.01 mM, a solubility ([3]; aqueous cyclodextrin solution, aqueous with cosolvent or surfactant or cyclodextrin, Solubility of steroid, (SPE)5.4 γ-CD 0.08 M) of 7.74 mM and a solubility ([3]; aqueous cyclodextrin solution, aqueous with cosolvent or surfactant or cyclodextrin, Solubility of steroid, (SPE)7 β-CD 0.08 M) of 2.42 mM. It also gave a solubility ([3]; aqueous cyclodextrin solution, aqueous with cosolvent or surfactant or cyclodextrin, Solubility of steroid, β-CD 0.015M) of 0.813 mM, a solubility ([3]; aqueous cyclodextrin solution, aqueous with cosolvent or surfactant or cyclodextrin, Solubility of steroid, γ-CD 0.035 M) of 0.101 mM and a solubility ([3]; aqueous cyclodextrin solution, aqueous with cosolvent or surfactant or cyclodextrin, Solubility of steroid, γ-CD 0.1 M) of 0.041 mM. The solubility ([3]; aqueous cyclodextrin solution, aqueous with cosolvent or surfactant or cyclodextrin, [Steroid] solubility, (SBE)6.1 γ-CD (0.04 M)) was 3.07 mM, the solubility ([3]; aqueous cyclodextrin solution, aqueous with cosolvent or surfactant or cyclodextrin, [Steroid] solubility, Captisol (0.04 M)) was 2.55 mM and the solubility ([3]; water, Solubility of steroid, H2O, no CD) was 0.0659 mM. The solubility ([3]; water, [Steroid] Intrinsic Solubility (in H2O), in H2O) was 0.066 mM.

“Sulfobutyl ether β-cyclodextrin [Captisol]” showed a Density ([4]; 8.5 % w/w Captisol) of 1.041 g/mL, a Density ([4]; 29.8 % w/w Captisol) of 1.149 g/mL and a Density ([4]; 39.7 % w/w Captisol) of 1.202 g/mL. The Density ([4]; 49.4 % w/w Captisol) was 1.259 g/mL, the Density ([4]; 59.4 % w/w Captisol) was 1.320 g/mL and the Density ([4]; […] w/w Captisol) was 1.095 g/mL. For the same compound, the Viscosity ([5]; 8.5 % w/w Captisol) was 1.75 Cp, the Viscosity ([5]; 29.8 % w/w Captisol) was 5.91 Cp and the Viscosity ([5]; 39.7 % w/w Captisol) was 17.0 Cp. The Viscosity ([5]; 49.4 % w/w Captisol) was 51.9 Cp, the Viscosity ([5]; 59.4 % w/w Captisol) was 527.0 Cp and the Viscosity ([5]; […] w/w Captisol) was 2.78 Cp. For the same compound, the “SBE7-β-CD concentration below which solutions are hypotonic and above which hypertonic with respect to blood” value [6] was 11-13 % w/v and the Hemolytic behavior (red blood cells) was “essentially no hemolytic behavior”.

For `CCNC(=O)[C@@H]1CCCN1C(=O)[C@H](CCCNC(=N)N)NC(=O)[C@H](CC(C)C)NC(=O)[C@@H](CC(C)C)NC(=O)[C@H](Cc1ccc(O)cc1)NC(=O)[C@H](CO)NC(=O)[C@H](Cc1c[nH]c2ccccc12)NC(=O)[C@H](Cc1c[nH]cn1)NC(=O)[C@@H]1CCC(=O)N1` [leuprolide acetate], the Bioavailability [7] is given as 2.4% and the “Bioavailability compared with i.v.” value [7] is given as 94%.
